Test results taken from PMC8082182 (Frontiers in Pharmacology, 2021).
Where two headings read alike, the source gives them in different places.

Experiments:
[1] = Unified one-compartment population PK model (NONMEM, FOCE with interaction) for Chinese adults and pediatric patients
Excerpt: (§1) The TDM concentration data of therapeutic drugs in adults and pediatric patients with Gram-positive bacterial infection were collected.
(§2) The population pharmacokinetics model was composed of a structural model and random effect models using the first-order conditional estimation method (FOCE) with interaction. Demographic variables (e.g., gender, age, weight, height, body mass index [BMI]), renal function descriptors (serum creatinine, eGFR, creatinine clearance rate [CLCr], and albumin, etc.), and disease conditions (e.g., surgery or injury, chronic kidney disease, diabetes, cancer) were tested as potential covariates. Covariates were evaluated using the stepwise forward-selection method and backward elimination. The population PK model for adults and pediatric patients were evaluated respectively and the model parameters were compared. In order to unify the population PK model for adults and pediatric patients, the datasets were merged and the covariates were consolidated and reevaluated. […] The established population PK model was used to simulate individual PK parameters (Cmin, Cmax, AUC0–24) by Bayesian feedback method for the further PK/PD evaluation.

[2] = for AUC0–24, median (IQR) / Cmax,ss, Median (IQR): Improved patients
Excerpt: as §1, §2

[3] = Pulmonary, Not improved patients, IQR not reported for n < 5

In the case of `CN[C@H](CC(C)C)C(=O)N[C@H]1C(=O)N[C@@H](CC(N)=O)C(=O)N[C@H]2C(=O)N[C@H]3C(=O)N[C@H](C(=O)N[C@H](C(=O)O)c4cc(O)cc(O)c4-c4cc3ccc4O)[C@H](O)c3ccc(c(Cl)c3)Oc3cc2cc(c3O[C@@H]2O[C@H](CO)[C@@H](O)[C@H](O)[C@H]2O[C@H]2C[C@](C)(N)[C@H](O)[C@H](C)O2)Oc2ccc(cc2Cl)[C@H]1O` [vancomycin], the “Age effect on V (θ5)” value ([1]; bootstrap median) is reported as 0.331, the “Body weight effect on V (θ6)” value ([1]; bootstrap median) is reported as 0.347 and the “V (θ2)” value ([1]; bootstrap median) is reported as 44.8 L. For the same compound, the “CL (θ1)” value ([1]; bootstrap median, 1,000 times) was 3.82 L/h, the “Age effect on V (θ5)” value ([1]; final model estimate, exponent) was 0.33 and the “Body weight effect on V (θ6)” value ([1]; final model estimate, exponent) was 0.349. The “V (θ2)” value ([1]; final model estimate, typical value at AGE 55, WT 58.25) was 44.7 L, the “CL (θ1)” value ([1]; final model estimate, typical value at CLCr 90.28, WT 58.25, adults and pediatric patients) was 3.83 L/h and the “AUC0–24, median (IQR)” value ([2]; Bloodstream) was 215.9 (172.33, 305.85) hr*mg/L. For the same compound, the “Cmax,ss, Median (IQR)” value ([2]; Bloodstream) was 23.32 (17.20, 26.57) mg/L, the “Cmax,ss, Median” value ([2]; Bloodstream, Not improved patients, IQR not reported for n < 5) was 26.02 mg/L and the “AUC0–24, median (IQR)” value ([2]; Central nerve system) was 303.3 (204.97, 386.18) hr*mg/L. For the same compound, the “Cmax,ss, Median (IQR)” value ([2]; Central nerve system) was 28.11 (24.75, 30.66) mg/L, the “Cmax,ss, Median” value ([2]; Central nerve system, Not improved patients, IQR not reported for n < 5) was 21.41 mg/L and the “Cmax,ss, Median (IQR)” value ([2]; Endocarditis) was 21.50 (17.20, 23.70) mg/L. For the same compound, the “AUC0–24, median (IQR)” value ([2]; Overall) was 217.5 (172.87, 286.34) hr*mg/L, the “AUC0–24, median (IQR)” value ([2]; Pulmonary) was 219.2 (183.44, 266.38) hr*mg/L and the “Cmax,ss, Median (IQR)” value ([2]; Pulmonary) was 20.24 (16.24, 28.07) mg/L. The “Cmax,ss, Median” value [2, 3] was 22.60 mg/L, the “Cmin,ss, Median” value [2, 3] was 3.32 mg/L and the “AUC0–24, median (IQR)” value ([2]; Urinary tract) was 196.2 (145.03, 287.92) hr*mg/L. For the same compound, the “Cmax,ss, Median (IQR)” value ([2]; Urinary tract) was 22.08 (15.80, 25.63) mg/L and the “Cmax,ss, Median” value ([2]; Urinary tract, Not improved patients, IQR not reported for n < 5) was 29.18 mg/L.
